SMILES strings stand for the structures. Numbers after ± are expanded uncertainties.

Usually vapor or sublimation pressure stands for the pressure of vapour in equilibrium with the condensed phase.

The conditions of the data set: Liquid.

As for `FC(F)C(F)(F)F` [pentafluoroethane], the “vapor or sublimation pressure” value by setting is: (243.15 K) 228.5 ± 6.1 kPa; (253.15 K) 337.9 ± 8.5 kPa; (263.15 K) 483.1 ± 12 kPa; (272.15 K) 650.1 ± 16 kPa; (283.15 K) 908.8 ± 23 kPa; (293.15 K) 1204.5 ± 30 kPa. Moreover, the “vapor or sublimation pressure” value stood at 1566.8 ± 39 kPa (303.15 K), 2005.6 ± 50 kPa (313.15 K), 2533.2 ± 63 kPa (323.15 K) and 3167.4 ± 79 kPa (333.15 K).

On to `CC(C)C` [2-methylpropane], for which the “vapor or sublimation pressure” value was 46.2 ± 3.2 kPa (243.15 K); 72 ± 3.5 kPa (253.15 K); 107.9 ± 3.9 kPa (263.15 K); 150.9 ± 4.6 kPa (272.15 K); 220.1 ± 5.9 kPa (283.15 K); 301.8 ± 7.6 kPa (293.15 K). The “vapor or sublimation pressure” value runs as follows: (303.15 K) 404.3 ± 10 kPa; (313.15 K) 530.8 ± 13 kPa; (323.15 K) 684.3 ± 17 kPa; (333.15 K) 868.3 ± 22 kPa.

The values are drawn from the NIST ThermoML archive (doi:10.1021/je7001539).
